What was measured:
Gαi2 protein = assay: Western blot of Gαi2 protein levels in PC3 cells; type: cell-based, human; details: 24 h; docetaxel 1 nM
Method: Docetaxel, a taxoid anti-cancer agent, was purchased from Millipore-Sigma and dissolved in DMSO at a starting concentration of 100 μM. SAHA, a commercially available FDA-approved HDACi, was purchased from Sigma-Aldrich (St. Louis, MO, USA) and dissolved in DMSO at a starting concentration of 100 mM. SBI-I-19, an HDAC inhibitor conjugated with anti-androgen, was dissolved in DMSO at a starting concentration of 50 mM. The anti-androgen drugs enzalutamide and bicalutamide were purchased from Selleckchem (Houston, TX, USA) and Sigma-Aldrich, respectively. Anti-androgens were prepared at a stock concentration of 100 mM (enzalutamide) and 10 mM (bicalutamide) in DMSO. The Gαi2 inhibitor (compound 14) was diluted in DMSO at a stock concentration of 100 mM, as previously described. All drugs used in the study were then diluted in the culture media to the final concentrations used in various assays. To determine the effects of specific treatments on the levels of Gαi2 protein, LNCaP and PC3 cells (10^6 cells) were cultured overnight in 10 cm^2 culture dishes. The cells were then treated with anti-androgens and other agents for 24 h and the total cell lysates were collected for Western blot analyses.
Western blot analyses were performed as described previously. […] The density of specific protein bands was determined using ImageJ 1.53 K image analyses software.

PC3 cells [1] = assay: transwell migration assay, PC3 cells; type: cell-based, human
Method: (§1) In vitro transwell migration assays were conducted as described previously. Briefly, the outside of the transwell inserts (BD Biosciences, San Jose, CA, USA) were coated with 50 µL of rat tail collagen (50 μg/mL; BD Biosciences, San Jose, CA, USA) overnight at 4 °C. The next day, 50 μL of the aforementioned rat tail collagen was added for 1 h at room temperature into the transwell inserts to coat the inside of the membranes. DU145, PC3 and LNCaP cells were trypsinized and suspended at the appropriate density (3 × 10^5 cells/insert for DU145 and PC3, and 5 × 10^5 cells/insert for LNCaP) in MEM or RPMI containing 0.2% BSA (Sigma-Aldrich, St. Louis, MO, USA). Chemoattractant solution, used as the positive control, was made by diluting the epidermal growth factor (EGF) (10 ng/mL) into MEM (PC3 and DU145) or RPMI (LNCaP) supplemented with 0.2% BSA. Media containing 0.2% BSA served as a control. Control and EGF solutions (400 μL) were added into the wells of a 24-well plate. Aliquots of 100 μL of cell suspensions, treated with or without the different compounds at several concentrations, were loaded into the transwell inserts, and the plates were incubated at 37 °C for 5 h (DU145 and PC3) or 24 h (LNCaP). The cells inside the transwell inserts were removed by cotton swabs, and the cleaned inserts were fixed with 350 μL of 4% paraformaldehyde (pH 7.5) for 20 min at room temperature. Cells that had migrated to the outside of the transwell insert membrane were stained with 3 ng/mL of DAPI solution (Thermo Fisher Scientific, Eugene, OR, USA), and images of five non-overlapping fields were captured using an Axiovert 200M, Carl Zeiss (Thornwood, NY, USA) microscope. The number of stained nuclei were determined with automatic counting using image analysis software (ZEN 2012 (blue edition, Version 1.1.1.0); Carl Zeiss Microscopy GmbH, Oberkochen, Germany). The results were expressed as a migration index defined as the average number of cells per field for test substance/the average number of cells per field for the medium control.

PC3 cells [2] = system: PC3 cells; set-up: method as in PMID 32575572; details: cited from earlier work
LNCaP cells = assay: transwell migration assay, LNCaP cells; type: cell-based, human; details: compound 14 at 25 μM, simultaneous treatment with enzalutamide, bicalutamide, SAHA or SBI-I-19
Method: as §1

DU145 cells = system: DU145 cells; set-up: method as in PMID 32575572; details: cited from earlier work

CC(=O)O[C@@]12CO[C@@H]1C[C@H](O)[C@@]1(C)C(=O)[C@H](O)C3=C(C)[C@@H](OC(=O)[C@H](O)[C@@H](NC(=O)OC(C)(C)C)c4ccccc4)C[C@@](O)([C@@H](OC(=O)c4ccccc4)[C@H]21)C3(C)C [docetaxel, reference compound]
levels of Gαi2 protein in PC3 cells (Gαi2 protein): had no effect on the levels of Gαi2 protein | effect of chemotherapeutic drugs on PC3 cell migration (PC3 cells [1]; drug alone, AR-negative cells): induced an increase in cell migration

C/C(=N\c1ccc(O)cc1)c1cc2ccccc2n1C [Compound 14]
EGF-induced migration of PC3 cells (PC3 cells [2]): attenuated the EGF-induced migration | effect on docetaxel-induced PC3 cell migration (PC3 cells [1]; compound 14 at 25 μM, simultaneous treatment with docetaxel): blocked the stimulatory effects of docetaxel | effect on HDACi- and anti-androgen-induced LNCaP cell migration (LNCaP cells): blocked | EGF-induced migration of DU145 cells (DU145 cells): attenuated the EGF-induced migration

Reference: paper PMC10813862, “Gαi2 Protein Inhibition Blocks Chemotherapy- and Anti-Androgen-Induced Prostate Cancer Cell Migration” (Cancers, 2024)
